In US5521160A, “Sulfuric acid esters of sugar alcohols” (Hoffmann-La Roche Inc., priority 1994, dated 1996):
Counter-ions that a name gives are not always drawn. Like-named read-outs stand apart in the source and are kept apart here.

Assays:
[1] = system: rat smooth muscle cells; assay: Antiproliferative activity (growth inhibition of rat smooth muscle cells, relative to heparin); assay type: cell-based; conditions: 100 μg/ml, 48 hours, relative to heparin 100 μg/ml in same experiment
Protocol: The antiproliferative activity of a substance is expressed as the ri value which is a comparative value to the corresponding activity of heparin and which was determined in cell cultures as follows: rat smooth muscle cells were applied to cell culture plates in a density of 8×10^3 cells/well (medium: DMEM with 10% FCS. Cultivation at 37° C. and 5% CO2). After 4 hours the number of adhered cells was determined and the compounds to be tested (100 μg/ml, dissolved in H2 O) were added. The controls were a) cells to which test compound was not added and b) heparin (100 μg/ml). Subsequently, the cells were incubated for 48 hours and thereafter the cell count was determined once more.
The inhibition i of the cell growth, i.e. the percent reduction in the growth rate of the cells compared to the control, was calculated from these values: [formula] the growth rate μ being calculated as [formula] in which Z is the number of cells.
Finally, ri --the relative inhibitory activity--which expresses the activity of a substance (at 100 μg/ml) in comparison to the activity of heparin in the same concentration in the same experiment, was calculated: [formula]

[2] = molecular target: T1, thrombin (Homo sapiens, UniProt P00734); assay: biochemical; assay type: biochemical; conditions: for IC50: read-out: Anticoagulative Activity IC50 Thrombin
T1 construct: purchased Roche, Basle (Thrombin Reagent)
Protocol: (§1) The blood coagulation-inhibiting activity was determined as follows:
Inhibition of Thrombin or Factor Xa in the Chromogenic Substrate Assay (Teien. et al., Thrombosis Research 10, 399-410 (1977)): The determination was effected in a Cobas-Bio centrifugal automatic spectrophotometer. The buffer solution used consisted of 50 mM Tris buffer, 180 mM NaCl, 7.5 mM EDTA Na2, 1% PEG 6000 and 0.02% Tween 80, pH 8.4. The test solution consisted of 50 μl of buffer, 30 μl of antithrombin III (1 U/ml, Kabi Diagnostica) and 20 μl of plasma which contained various concentrations of test compounds. 30 μl of sample solution and 20 μl of water with 180 μl of thrombin (1 U/ml, Thrombin Reagent Roche Basle) were added to the test cuvette in the automatic analyzer. After incubation at 37° C. for 240 seconds, 60 μl of S-2238 (H-D-Phe-Pip-Arg-NH.pNA, Kabi Diagnostica, Mondal, Sweden, 0.75 mM in water) and 20 μl of water were added. The liberation of pNA (p-nitroaniline) was followed during 60 seconds at 405 nm in 10 second intervals in comparison to water as the blank.

[3] = molecular target: T2, Factor Xa (Bos taurus, UniProt P00743); assay: Inhibition of Factor Xa in the chromogenic substrate assay (blood coagulation inhibition); assay type: biochemical; conditions: chromogenic substrate S-2222, antithrombin III, plasma; for IC50: read-out: Anticoagulative Activity IC50 Factor Xa
T2 sequence (P00743 41-180 limits assumed): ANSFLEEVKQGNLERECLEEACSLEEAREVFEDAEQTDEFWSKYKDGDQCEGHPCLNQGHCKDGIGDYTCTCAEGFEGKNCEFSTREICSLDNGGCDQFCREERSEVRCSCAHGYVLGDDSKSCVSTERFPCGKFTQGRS
Protocol: as §1
Inhibition of Thrombin or Factor Xa in the Chromogenic Substrate Assay (Teien. et al., Thrombosis Research 10, 399-410 (1977)): The determination was effected in a Cobas-Bio centrifugal automatic spectrophotometer. The buffer solution used consisted of 50 mM Tris buffer, 180 mM NaCl, 7.5 mM EDTA Na2, 1% PEG 6000 and 0.02% Tween 80, pH 8.4. The test solution consisted of 50 μl of buffer, 30 μl of antithrombin III (1 U/ml, Kabi Diagnostica) and 20 μl of plasma which contained various concentrations of test compounds.
The inhibition of Factor Xa was measured in the same manner using a solution of Factor Xa (2.8 nkat/ml) and 2 mM S-2222 (Bz-CO-Ile-Glu-Arg-NH.pNA, Kabi Diagnostica) in water in place of thrombin or S-2238.

[4] = chromogenic substrate S-2238, antithrombin III, plasma, pH 8.4, 37° C.

Molecule | IC50 [2, 4] [µM] | IC50 [3] [µM] | IC50 ([2]; pH 8.4) [µM] | Anticoagulative Activity IC50 Thrombin [2, 4] [mg/L] | Anticoagulative Activity IC50 Factor Xa [3] [mg/L] | Antiproliferative Activity ri (relative inhibitory activity compared with heparin) [1]
O=C(/C=C\C(=O)Nc1cc(COc2ccc(-c3ccccc3)cc2)cc(NC(=O)/C=C\C(=O)NC[C@H](OS(=O)(=O)O)[C@@H](OS(=O)(=O)O)[C@H](OS(=O)(=O)O)[C@@H](COS(=O)(=O)O)OS(=O)(=O)O)c1)NC[C@H](OS(=O)(=O)O)[C@@H](OS(=O)(=O)O)[C@H](OS(=O)(=O)O)[C@@H](COS(=O)(=O)O)OS(=O)(=O)O [Example 58, (Z)-butenedioic acid (Z)-[3-biphenyl-4-yloxymethyl-5-[3-(2,3,4,5,6-penta-O-sulfo-D-glucit-1-ylcarbamoyl)-acryloylamino]-phenylamide]-(2,3,4,5,6-penta-O-sulfo-D-glucit-1-yl)-amide decasodium salt] | > 620 | > 620 |  |  |  | 2.2
Cc1c(NC(=O)NC[C@H](OS(=O)(=O)O)[C@@H](OS(=O)(=O)O)[C@H](OS(=O)(=O)O)[C@@H](COS(=O)(=O)O)OS(=O)(=O)O)cccc1NC(=O)NC[C@H](OS(=O)(=O)O)[C@@H](OS(=O)(=O)O)[C@H](OS(=O)(=O)O)[C@@H](COS(=O)(=O)O)OS(=O)(=O)O [Example 26, 3,3'-bis-(2,3,4,5,6-penta-O-sulfo-D-glucit-1-yl)-1,1'-(toluene-2,6-diyl)-diurea decasodium salt] | > 748 | > 748 |  |  |  | 1.5
O=C(NC[C@H](OS(=O)(=O)O)[C@@H](OS(=O)(=O)O)[C@H](OS(=O)(=O)O)[C@@H](COS(=O)(=O)O)OS(=O)(=O)O)c1ccc(/C=C/c2ccc(C(=O)NC[C@H](OS(=O)(=O)O)[C@@H](OS(=O)(=O)O)[C@H](OS(=O)(=O)O)[C@@H](COS(=O)(=O)O)OS(=O)(=O)O)cc2Cl)cc1 [Example 85, (E)-2-chlorostilbene-4,4'-dicarboxylic acid bis-(2,3,4,5,6-penta-O-sulfo-D-glucit-1-ylamide) decasodium salt] | > 699 | > 699 |  |  |  | 2.1
O=C(NC[C@H](OS(=O)(=O)O)[C@@H](OS(=O)(=O)O)[C@H](OS(=O)(=O)O)[C@@H](COS(=O)(=O)O)OS(=O)(=O)O)c1ccc(CCc2ccc(C(=O)NC[C@H](OS(=O)(=O)O)[C@@H](OS(=O)(=O)O)[C@H](OS(=O)(=O)O)[C@@H](COS(=O)(=O)O)OS(=O)(=O)O)cc2)cc1 [Example 10, 4,4'-ethylene-dibenzoic acid bis-(2,3,4,5,6-penta-O-sulfo-D-glucit-1-ylamide) decasodium salt] | > 716 | > 716 |  |  |  | 1.5
O=C(NC[C@H](OS(=O)(=O)O)[C@@H](OS(=O)(=O)O)[C@H](OS(=O)(=O)O)[C@@H](COS(=O)(=O)O)OS(=O)(=O)O)c1ccc(S(=O)(=O)c2ccc(C(=O)NC[C@H](OS(=O)(=O)O)[C@@H](OS(=O)(=O)O)[C@H](OS(=O)(=O)O)[C@@H](COS(=O)(=O)O)OS(=O)(=O)O)cc2)cc1 [Example 4, 4,4'-sulfonyl-dibenzoic acid bis-(2,3,4,5,6-penta-O-sulfo-D-glucit-1-ylamide) decasodium salt] | > 698 | > 698 |  |  |  | 0.3
heparin [reference compound] |  |  |  | 1.9 | 2.7 | 1.0

Continued, in another order:

IC50 [2, 4] [µM] | IC50 [3] [µM] | IC50 ([2]; pH 8.4) [µM] | Anticoagulative Activity IC50 Thrombin [2, 4] [mg/L] | Anticoagulative Activity IC50 Factor Xa [3] [mg/L] | Molecule | Antiproliferative Activity ri (relative inhibitory activity compared with heparin) [1]
> 773 | > 773 |  |  |  | O=C(NC[C@H](OS(=O)(=O)O)[C@@H](OS(=O)(=O)O)[C@H](OS(=O)(=O)O)[C@@H](COS(=O)(=O)O)OS(=O)(=O)O)c1cccc(C(=O)NC[C@H](OS(=O)(=O)O)[C@@H](OS(=O)(=O)O)[C@H](OS(=O)(=O)O)[C@@H](COS(=O)(=O)O)OS(=O)(=O)O)c1 [Example 14, N,N'-bis-(2,3,4,5,6-penta-O-sulfo-D-glucit-1-yl)-isophthalamide decasodium salt] | 0.6
 | > 745 | > 745 |  |  | O=C(NC[C@H](OS(=O)(=O)O)[C@@H](OS(=O)(=O)O)[C@H](OS(=O)(=O)O)[C@@H](COS(=O)(=O)O)OS(=O)(=O)O)c1ccc2cc(C(=O)NC[C@H](OS(=O)(=O)O)[C@@H](OS(=O)(=O)O)[C@H](OS(=O)(=O)O)[C@@H](COS(=O)(=O)O)OS(=O)(=O)O)ccc2c1 [Example 1, naphthalene-2,6-dicarboxylic acid bis-(2,3,4,5,6-penta-O-sulfo-D-glucit-1-ylamide) decasodium salt] | 0.6
> 831 | > 831 |  |  |  | C[C@H](OS(=O)(=O)O)[C@H](OS(=O)(=O)O)[C@@H](OS(=O)(=O)O)[C@H](CNC(=O)c1ccc(/C=C\c2ccc(C(=O)NC[C@H](OS(=O)(=O)O)[C@H](OS(=O)(=O)O)[C@@H](OS(=O)(=O)O)[C@H](C)OS(=O)(=O)O)cc2)cc1)OS(=O)(=O)O [Example 93, (Z)-stilbene-4,4'-dicarboxylic acid bis-(2,3,4,5,6-penta-O-sulfo-L-rhamnit-1-ylamide) octasodium salt] | 1.0
